Literature values, collected in paper PMC6915728 (Nature Communications, 2019).
Like-named read-outs stand apart in the source and are kept apart here.

Experiments:
[1] = system: E. coli gene overexpression; details: cited from earlier work
Excerpt: Supplement 41467_2019_13618_MOESM1_ESM.docx, table 1: Supplementary Table 1. Collected examples of E. coli gene overexpression from the literature as a confirmation of our chemical-genetic screen results. | column: Overexpression phenotype

[2] = system: bacterial species in which the gene showed activity; details: cited from earlier work

KTKKKFLKKT [PXB, Polymyxin B, from Bacillus polymyxa, purchased from Sigma-Aldrich; disrupts cell membrane; cluster C1]
Overexpression phenotype, Literature ([1]; gene arnT overexpressed, ref 5 (Trent et al. 2001)): Resistance^5 | Overexpression phenotype, Literature ([1]; gene eptA overexpressed, ref 7 (Olaitan et al. 2014)): Resistance^7 | Overexpression phenotype, Literature ([1]; gene marA overexpressed, ref 3 (Warner & Levy 2010)): Resistance^3 | Overexpression phenotype, Literature ([1]; gene pmrD overexpressed, ref 8 (Roland et al. 1994)): Resistance^8 | Gene that modulates bacterial susceptibility to the AMP ([2]; Acinetobacter baumannii, ref http://aac.asm.org/content/54/12/4971.full.pdf+html): lpxA | Gene that modulates bacterial susceptibility to the AMP ([2]; Bordetella pertussis, ref http://www.ncbi.nlm.nih.gov/pmc/articles/PMC4136009/): lgmA, IgmB, IgmC | Gene that modulates bacterial susceptibility to the AMP ([2]; Burkholderia genus, ref http://www.ncbi.nlm.nih.gov/pmc/articles/PMC3143681/, http://www.ncbi.nlm.nih.gov/pmc/articles/PMC1428139/): waaF | Gene that modulates bacterial susceptibility to the AMP ([2]; Campylobacter jejuni, ref http://www.ncbi.nlm.nih.gov/pmc/articles/PMC3270987/): eptC | Gene that modulates bacterial susceptibility to the AMP ([2]; Escherichia coli, Klebsiella pneumoniae, Pseudomonas aeruginosa, Kluyvera ascorbata, ref http://www.ncbi.nlm.nih.gov/pubmed/26603172, http://ac.els-cdn.com/S1473309915005332/1-s2.0-S1473309915005332-main.pdf?_tid=16a7f944-6944-11e6-8a9d-00000aab0f02&acdnat=1471965364_7f481026d1a49114e23adef4a6b4d1a9, https://www.ncbi.nlm.nih.gov/pmc/articles/PMC5119035/): mcr1 | Gene that modulates bacterial susceptibility to the AMP ([2]; Escherichia coli, Salmonella sp., Pseudomonas aeruginosa, ref https://ac.els-cdn.com/S0923250806000532/1-s2.0-S0923250806000532-main.pdf?_tid=eafe08ea-d0fa-11e7-b1a6-00000aacb35f&acdnat=1511516356_5b16dbb059dc1cc9bc53dd73456e437d): etk | Gene that modulates bacterial susceptibility to the AMP ([2]; Escherichia coli, ref http://www.jbc.org/content/287/46/38778.full.pdf, http://www.jbc.org/content/early/2007/10/10/jbc.M706172200.full.pdf, https://onlinelibrary.wiley.com/doi/epdf/10.1111/j.1365-2958.2012.08154.x): arnD | Gene that modulates bacterial susceptibility to the AMP ([2]; Helicobacter pylori, ref http://www.ncbi.nlm.nih.gov/pmc/articles/PMC1482963/): lpxE | Gene that modulates bacterial susceptibility to the AMP ([2]; Klebsiella pneumoniae, ref http://iai.asm.org/content/72/12/7107.full.pdf+html): cps | Gene that modulates bacterial susceptibility to the AMP ([2]; Klebsiella pneumoniae, ref http://jac.oxfordjournals.org/content/70/1/75.full.pdf+html, http://embomolmed.embopress.org/content/9/4/430.long): mgrB | Gene that modulates bacterial susceptibility to the AMP ([2]; Klebsiella pneumoniae, ref http://www.ncbi.nlm.nih.gov/pmc/articles/PMC2798511/): acrB | Gene that modulates bacterial susceptibility to the AMP ([2]; Neisseria meningitidis, Neisseria gonorrhoeae, ref http://www.ncbi.nlm.nih.gov/pmc/articles/PMC1196002/): mtrC, mtrD, mtrE | Gene that modulates bacterial susceptibility to the AMP ([2]; Neisseria meningitidis, ref https://www.ncbi.nlm.nih.gov/pmc/articles/PMC1196002/): lptA | Gene that modulates bacterial susceptibility to the AMP ([2]; Neisseria meningitidis, ref https://www.ncbi.nlm.nih.gov/pmc/articles/PMC1196002/pdf/0005-05.pdf): lpxL1 | Gene that modulates bacterial susceptibility to the AMP ([2]; Parasutterella excrementihominis, ref https://utmb.influuent.utsystem.edu/en/publications/quorum-sensing-escherichia-coli-regulators-b-and-c-qsebc-a-novel-): qseB (pmrA) | Gene that modulates bacterial susceptibility to the AMP ([2]; Porphyromonas gingivalis, ref https://www.nature.com/articles/ijos200918.pdf?origin=ppub, https://www.ncbi.nlm.nih.gov/pmc/articles/PMC4388331/pdf/nihms-656041.pdf): lpxF | Gene that modulates bacterial susceptibility to the AMP ([2]; Pseudomonas aeruginosa, Salmonella typhimurium, Escherichia coli, ref http://www.sciencemag.org/content/286/5444/1561.full.pdf, http://onlinelibrary.wiley.com/doi/10.1111/j.1365-2958.1995.tb02299.x/abstract, http://www.ncbi.nlm.nih.gov/pmc/articles/PMC50673/pdf/pnas01098-0300.pdf, https://jb.asm.org/content/jb/182/14/4077.full.pdf): phoP (PhoPQ) | Gene that modulates bacterial susceptibility to the AMP ([2]; Pseudomonas aeruginosa, gene colR (ColRS), ref https://www.ncbi.nlm.nih.gov/pmc/articles/PMC4244539/pdf/fmicb-05-00643.pdf, http://aac.asm.org/content/57/5/2204.full.pdf+html): colR (ColRS) | Gene that modulates bacterial susceptibility to the AMP ([2]; Pseudomonas aeruginosa, gene cprR (CprRS), ref https://www.ncbi.nlm.nih.gov/pmc/articles/PMC4244539/pdf/fmicb-05-00643.pdf, http://aac.asm.org/content/57/5/2204.full.pdf+html): cprR (CprRS) | Gene that modulates bacterial susceptibility to the AMP ([2]; Pseudomonas aeruginosa, ref http://aac.asm.org/content/54/8/3372.full.pdf+html, http://aac.asm.org/content/56/12/6212.full.pdf+html, http://aac.asm.org/content/57/5/2204.full.pdf+html): parR (ParR-ParS) | Gene that modulates bacterial susceptibility to the AMP ([2]; Pseudomonas aeruginosa, ref http://jb.asm.org/content/186/2/575.long): pmrB | Gene that modulates bacterial susceptibility to the AMP ([2]; Salmonella enterica serovar Typhimurium, ref http://www.jbc.org/content/279/37/38618.long, https://onlinelibrary.wiley.com/doi/epdf/10.1111/j.1365-2958.2005.04553.x): slyA | Gene that modulates bacterial susceptibility to the AMP ([2]; Salmonella enterica serovar Typhimurium, ref http://www.jbc.org/content/279/37/38618.long): ugtL | Gene that modulates bacterial susceptibility to the AMP ([2]; Salmonella enterica serovar Typhimurium, ref http://www.microbiologyresearch.org/docserver/fulltext/micro/154/2/666.pdf?expires=1487718158&id=id&accname=guest&checksum=D8B884D02A8B2A8619216A48E0826377): yejA | Gene that modulates bacterial susceptibility to the AMP ([2]; Salmonella sp., ref https://www.ncbi.nlm.nih.gov/pmc/articles/PMC2904496/): eptA | Gene that modulates bacterial susceptibility to the AMP ([2]; Salmonella typhimurium, Escherichia coli, ref https://www.ncbi.nlm.nih.gov/pmc/articles/PMC3037666/, https://www.ncbi.nlm.nih.gov/pmc/articles/PMC3837802/pdf/zam7770.pdf): cpxA (CpxA/CpxR) | Gene that modulates bacterial susceptibility to the AMP ([2]; Salmonella typhimurium, gene pmrF (arnT operon), ref http://www.jbc.org/content/287/46/38778.full.pdf): pmrF (arnT operon) | Gene that modulates bacterial susceptibility to the AMP ([2]; Salmonella typhimurium, gene yfbG (arnA), ref http://www.jbc.org/content/287/46/38778.full.pdf): yfbG (arnA) | Gene that modulates bacterial susceptibility to the AMP ([2]; Salmonella typhimurium, ref https://www.ncbi.nlm.nih.gov/pmc/articles/PMC205548/pdf/jbacter00030-0157.pdf): pmrD | Gene that modulates bacterial susceptibility to the AMP ([2]; Staphylococcus aureus, ref http://aac.asm.org/content/51/8/2679.full.pdf+html): graR(GraRS) | Gene that modulates bacterial susceptibility to the AMP ([2]; Vibrio cholerae, ref http://pubs.acs.org/doi/pdf/10.1021/cb500438x): almE, almF, almG | Gene that modulates bacterial susceptibility to the AMP ([2]; Yersinia sp., ref http://www.helsinki.fi/yersinia/pdf_own/Bengo_MolMic_2000_37_67.pdf): rosA | Gene that modulates bacterial susceptibility to the AMP [2]: rcp (pagP) and pmm and bveA (BMEII0681) | Gene that modulates bacterial susceptibility to the AMP ([2]; pathogenic or commensal Enterobacteriaceae species, gene rcsB, ref https://www.ncbi.nlm.nih.gov/pmc/articles/PMC2895427/pdf/nihms212407.pdf): rcsB | Gene that modulates bacterial susceptibility to the AMP ([2]; pathogenic or commensal Enterobacteriaceae species, gene rcsC, ref https://www.ncbi.nlm.nih.gov/pmc/articles/PMC2895427/pdf/nihms212407.pdf): rcsC | Gene that modulates bacterial susceptibility to the AMP ([2]; pathogenic or commensal Enterobacteriaceae species, gene rcsD, ref https://www.ncbi.nlm.nih.gov/pmc/articles/PMC2895427/pdf/nihms212407.pdf): rcsD
